# Experimental data reported in ChEMBL document CHEMBL6178018, “Design of an Oral STING Agonist through Intramolecular Hydrogen Bond Ring Mimicking to Achieve Complete Tumor Regression” (J Med Chem, 2025).
# Tests used:
# [1] = target: T1, Stimulator of interferon genes protein (Homo sapiens, UniProt Q86WV6); assay: Agonist activity at human STING HAQ variant in human THP1-Blue ISG cells assessed as fold change in stimulation activity measured after 24 hrs incubation by QUANTI-Blue based microplate reader; format: cell-based
# Target sequence in this assay (Q86WV6 whole entry, looked up, change not shown): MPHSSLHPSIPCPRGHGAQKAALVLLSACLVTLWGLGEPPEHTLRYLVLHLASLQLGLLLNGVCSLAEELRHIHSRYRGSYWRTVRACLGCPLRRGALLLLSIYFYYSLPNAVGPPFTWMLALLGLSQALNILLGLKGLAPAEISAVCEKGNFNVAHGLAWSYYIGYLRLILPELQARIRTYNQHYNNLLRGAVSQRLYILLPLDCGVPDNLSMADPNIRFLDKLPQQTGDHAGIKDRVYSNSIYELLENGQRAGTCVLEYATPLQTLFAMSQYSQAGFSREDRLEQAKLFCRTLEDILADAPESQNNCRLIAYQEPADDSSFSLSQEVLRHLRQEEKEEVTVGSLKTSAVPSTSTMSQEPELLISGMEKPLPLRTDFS
# [2] = target: T1, Stimulator of interferon genes protein; assay: Binding affinity to wild type His-tagged STING (unknown origin) measured after 3 hrs incubation by HTRF assay
# Target sequence in this assay (Q86WV6 whole entry): as the sequence (Q86WV6 whole entry, looked up, change not shown) above
# [3] = target: T2, Stimulator of interferon genes protein (Mus musculus, UniProt Q3TBT3); assay: Agonist activity at mouse STING expressed in human THP1-Dual cells assessed as fold change in stimulation activity measured after 24 hrs incubation by QUANTI-Luc4 based microplate reader; format: cell-based
# T2 sequence (Q3TBT3 whole entry): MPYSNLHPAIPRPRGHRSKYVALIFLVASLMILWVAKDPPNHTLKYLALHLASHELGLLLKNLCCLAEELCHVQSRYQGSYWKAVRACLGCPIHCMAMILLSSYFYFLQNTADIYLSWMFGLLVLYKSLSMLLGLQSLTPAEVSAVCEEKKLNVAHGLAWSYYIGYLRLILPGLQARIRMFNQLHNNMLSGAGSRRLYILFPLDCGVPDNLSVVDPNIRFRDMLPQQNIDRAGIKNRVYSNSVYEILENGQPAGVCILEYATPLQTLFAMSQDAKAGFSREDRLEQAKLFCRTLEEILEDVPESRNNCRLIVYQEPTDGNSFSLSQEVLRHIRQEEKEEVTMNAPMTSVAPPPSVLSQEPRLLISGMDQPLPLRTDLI
# [4] = target: T1, Stimulator of interferon genes protein; assay: Agonist activity at STING R232 mutant (unknown origin) expressed in human THP1-Dual cells assessed as fold change in stimulation activity measured after 24 hrs incubation by QUANTI-Luc4 based microplate reader; format: cell-based
# Target sequence in this assay (Q86WV6 whole entry, looked up, change not shown): as the sequence (Q86WV6 whole entry, looked up, change not shown) above
# [5] = target: T1, Stimulator of interferon genes protein; assay: Agonist activity at human STING in human THP1-Blue ISG cells measured after 24 hrs incubation by QUANTI-Blue based microplate reader; format: cell-based
# Target sequence in this assay (Q86WV6 whole entry): as the sequence (Q86WV6 whole entry, looked up, change not shown) above
# [6] = Chemical stability of the compound in MeOH/H2O assessed as half life by LC-MS/MS analysis; format: physicochemical
Structure (SMILES),EC50 [1],further results
CCC(CNC(=O)c1sc2cc(OC)c(OC)c(F)c2c1F)C(=O)O (centres undefined),> 100 µM,
C#Cc1c(C(=O)NCCC(=O)O)sc2cc(OC)c(OC)cc12,> 100 µM,
COc1cc2sc(C(=O)N[C@H](C)CC(=O)O)c(F)c2cc1OC,> 100 µM,
COc1cc2sc(C(=O)N[C@@H](CC(=O)O)C(N)=O)c(F)c2cc1OC,> 100 µM,
CONC(=O)C(C)CNC(=O)c1sc2cc(OC)c(Br)cc2c1F (centres undefined),> 100 µM,
C=Cc1cc2c(F)c(C(=O)NCCC(=O)O)sc2cc1OC,> 100 µM,
CCOc1cc2c(F)c(C(=O)NCCC(=O)O)sc2cc1OC,> 100 µM,
COc1cc2sc(C(=O)NCCB(O)O)c(F)c2cc1OC,> 100 µM,
CCC(CNC(=O)c1[se]c2cc(OC)c(OC)cc2c1F)C(=O)O (centres undefined),3.8 µM,EC50 [3]: 12.5 µM; EC50 [4]: 13.3 µM
COc1cc2sc(C(=O)NCCC(=O)O)c(C)c2cc1OC,> 100 µM,
COc1cc2sc(C(=O)NCCC(=O)O)c(F)c2cc1OC(C)C,> 100 µM,
COc1cc2sc(C(=O)NCC(F)(F)C(=O)O)c(F)c2cc1Br,> 100 µM,
COc1cc2sc(C(=O)NCC(C)C(=O)O)c(F)c2cc1Br (centres undefined),> 100 µM,

# Further lines, with some results ahead:
EC50 [1],Structure (SMILES),further results
> 100 µM,CCC(CNC(=O)c1sc2cc(OC)c(OC(F)F)cc2c1F)C(=O)O (centres undefined),
6.2 µM,COc1cc2sc(C(=O)NC[C@H](C)C(=O)O)c(F)c2cc1OC,IC50 [2]: 33.3 µM; EC50 [3]: 61.2 µM; EC50 [4]: 58.5 µM
33 µM,CONC(=O)CCNC(=O)c1sc2cc(OC)c(OC)cc2c1F,
4.8 µM,CCC(CNC(=O)c1sc2cc(OC)c(OC)cc2c1F)C(=O)O (racemic),IC50 [2]: 24.6 µM; EC50 [3]: 15.7 µM; EC50 [4]: 17.2 µM
26.5 µM,COc1cc2sc(C(=O)NCCC(=O)O)c(Cl)c2cc1OC,
54.6 µM,COc1cc2sc(C(=O)NCCCC(=O)O)c(F)c2cc1OC,
47.2 µM,COc1cc2sc(C(=O)NCCC(=O)O)c(Br)c2cc1OC,
30.3 µM,COc1cc2sc(C(=O)NCCC(=O)O)c(F)c2cc1OC,IC50 [2]: 49.8 µM; EC50 [5]: 30.3 µM; half-life [6]: > 2880 min
11.3 µM,CC[C@@H](CNC(=O)c1sc2cc(OC)c(OC)cc2c1F)C(=O)O,IC50 [2]: 65.5 µM; EC50 [3]: 45.9 µM; EC50 [4]: 51.3 µM
7.1 µM,COc1cc2sc(C(=O)NCC(C)C(=O)O)c(F)c2cc1OC (racemic),IC50 [2]: 30.6 µM; EC50 [3]: 25.1 µM; EC50 [4]: 33.1 µM
4.7 µM,COc1cc2sc(C(=O)NC[C@@H](C)C(=O)O)c(F)c2cc1OC,IC50 [2]: 28.7 µM; EC50 [3]: 27.9 µM; EC50 [4]: 36.5 µM
